Results taken from ChEMBL document CHEMBL5291721, “A preclinical secondary pharmacology resource illuminates target-adverse drug reaction associations of marketed drugs” (Nat Commun, 2023).

Assays:
[1] = target: T1, B1 bradykinin receptor (Homo sapiens, UniProt P46663)
T1 sequence (P46663 whole entry): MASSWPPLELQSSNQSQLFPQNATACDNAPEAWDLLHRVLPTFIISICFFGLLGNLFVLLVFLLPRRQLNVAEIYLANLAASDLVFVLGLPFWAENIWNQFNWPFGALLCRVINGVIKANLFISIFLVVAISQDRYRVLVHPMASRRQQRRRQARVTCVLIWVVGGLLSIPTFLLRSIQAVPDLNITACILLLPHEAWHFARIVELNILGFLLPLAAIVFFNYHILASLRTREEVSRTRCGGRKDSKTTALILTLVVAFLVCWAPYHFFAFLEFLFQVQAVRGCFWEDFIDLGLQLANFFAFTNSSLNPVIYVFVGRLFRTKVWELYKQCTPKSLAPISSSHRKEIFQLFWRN

[2] = target: T2, Muscarinic acetylcholine receptor M2 (Homo sapiens, UniProt P08172)
T2 sequence (P08172 whole entry): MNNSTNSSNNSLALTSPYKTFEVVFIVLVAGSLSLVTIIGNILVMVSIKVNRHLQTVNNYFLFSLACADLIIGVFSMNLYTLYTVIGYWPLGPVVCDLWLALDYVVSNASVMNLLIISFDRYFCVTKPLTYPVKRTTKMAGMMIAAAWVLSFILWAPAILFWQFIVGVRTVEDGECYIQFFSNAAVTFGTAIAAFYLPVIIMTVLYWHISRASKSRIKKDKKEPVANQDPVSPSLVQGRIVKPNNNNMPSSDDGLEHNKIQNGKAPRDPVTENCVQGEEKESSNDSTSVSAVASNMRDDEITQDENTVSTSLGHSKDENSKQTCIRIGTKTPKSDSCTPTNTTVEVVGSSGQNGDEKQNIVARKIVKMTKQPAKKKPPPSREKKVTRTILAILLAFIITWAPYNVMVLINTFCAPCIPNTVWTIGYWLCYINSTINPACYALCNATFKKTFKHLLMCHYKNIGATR

[3] = target: Histamine H2 receptor (Homo sapiens, UniProt P25021)
[4] = target: T3, Corticotropin-releasing factor receptor 1 (Homo sapiens, UniProt P34998)
T3 sequence (P34998 whole entry): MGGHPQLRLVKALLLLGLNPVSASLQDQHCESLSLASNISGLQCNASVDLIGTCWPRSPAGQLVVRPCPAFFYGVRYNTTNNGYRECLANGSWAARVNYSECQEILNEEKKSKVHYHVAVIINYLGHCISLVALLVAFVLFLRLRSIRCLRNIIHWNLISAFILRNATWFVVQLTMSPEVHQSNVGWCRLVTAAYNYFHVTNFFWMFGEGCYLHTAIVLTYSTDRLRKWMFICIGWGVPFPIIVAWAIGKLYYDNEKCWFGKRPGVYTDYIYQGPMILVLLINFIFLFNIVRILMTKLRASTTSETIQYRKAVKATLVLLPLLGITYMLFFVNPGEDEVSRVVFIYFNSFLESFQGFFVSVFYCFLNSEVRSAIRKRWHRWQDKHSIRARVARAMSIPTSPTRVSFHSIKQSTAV

[5] = target: D(1A) dopamine receptor (Homo sapiens, UniProt P21728)
[6] = target: T4, Progesterone receptor (Homo sapiens, UniProt P06401)
T4 sequence (P06401 whole entry): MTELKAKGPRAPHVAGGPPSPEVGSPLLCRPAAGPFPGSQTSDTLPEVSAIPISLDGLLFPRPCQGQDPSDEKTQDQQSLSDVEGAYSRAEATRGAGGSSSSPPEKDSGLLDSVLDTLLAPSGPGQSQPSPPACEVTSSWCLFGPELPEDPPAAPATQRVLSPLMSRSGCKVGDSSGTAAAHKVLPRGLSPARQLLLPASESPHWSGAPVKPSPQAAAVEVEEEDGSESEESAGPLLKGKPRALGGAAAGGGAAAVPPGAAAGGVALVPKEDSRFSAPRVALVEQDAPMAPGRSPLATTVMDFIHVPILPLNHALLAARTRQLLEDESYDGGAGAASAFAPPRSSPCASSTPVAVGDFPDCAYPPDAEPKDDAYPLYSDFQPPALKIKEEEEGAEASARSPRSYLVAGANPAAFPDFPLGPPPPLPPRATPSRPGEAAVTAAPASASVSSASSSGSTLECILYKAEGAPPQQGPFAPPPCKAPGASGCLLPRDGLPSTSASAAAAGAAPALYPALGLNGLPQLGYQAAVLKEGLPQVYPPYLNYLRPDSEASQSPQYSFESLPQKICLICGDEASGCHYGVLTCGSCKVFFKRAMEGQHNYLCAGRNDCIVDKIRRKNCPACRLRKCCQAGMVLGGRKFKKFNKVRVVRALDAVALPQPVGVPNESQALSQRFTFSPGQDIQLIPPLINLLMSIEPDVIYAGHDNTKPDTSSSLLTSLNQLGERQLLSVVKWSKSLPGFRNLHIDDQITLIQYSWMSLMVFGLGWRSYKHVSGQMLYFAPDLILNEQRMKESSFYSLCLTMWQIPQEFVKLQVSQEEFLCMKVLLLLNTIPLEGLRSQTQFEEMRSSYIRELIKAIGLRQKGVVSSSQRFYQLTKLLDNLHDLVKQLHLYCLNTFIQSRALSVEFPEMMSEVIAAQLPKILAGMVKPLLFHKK

[7] = target: T5, Gamma-aminobutyric acid receptor subunit alpha-1/alpha-2/beta-2/gamma-2 (Homo sapiens, UniProt P14867+P18507+P47869+P47870); assay type: functional, cell-based
[8] = target: T5, Gamma-aminobutyric acid receptor subunit alpha-1/alpha-2/beta-2/gamma-2; assay type: functional, cell-based; remark: listed apart in the source
Also: assay procedure not described here.

T5 sequence (P14867 whole entry): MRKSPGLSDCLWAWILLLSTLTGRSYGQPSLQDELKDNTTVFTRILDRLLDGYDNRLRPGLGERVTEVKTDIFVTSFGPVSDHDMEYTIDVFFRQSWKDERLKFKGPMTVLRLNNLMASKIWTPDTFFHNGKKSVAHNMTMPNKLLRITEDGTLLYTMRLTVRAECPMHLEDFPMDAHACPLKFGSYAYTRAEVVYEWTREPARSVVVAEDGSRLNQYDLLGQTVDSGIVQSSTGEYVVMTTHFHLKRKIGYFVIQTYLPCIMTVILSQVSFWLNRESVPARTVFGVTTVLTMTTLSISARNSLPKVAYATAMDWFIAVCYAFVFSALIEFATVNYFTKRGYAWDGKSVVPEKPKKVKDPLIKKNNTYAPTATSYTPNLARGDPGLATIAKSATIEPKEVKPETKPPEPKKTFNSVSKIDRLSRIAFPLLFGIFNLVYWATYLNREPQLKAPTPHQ
T5 sequence (P47870 whole entry): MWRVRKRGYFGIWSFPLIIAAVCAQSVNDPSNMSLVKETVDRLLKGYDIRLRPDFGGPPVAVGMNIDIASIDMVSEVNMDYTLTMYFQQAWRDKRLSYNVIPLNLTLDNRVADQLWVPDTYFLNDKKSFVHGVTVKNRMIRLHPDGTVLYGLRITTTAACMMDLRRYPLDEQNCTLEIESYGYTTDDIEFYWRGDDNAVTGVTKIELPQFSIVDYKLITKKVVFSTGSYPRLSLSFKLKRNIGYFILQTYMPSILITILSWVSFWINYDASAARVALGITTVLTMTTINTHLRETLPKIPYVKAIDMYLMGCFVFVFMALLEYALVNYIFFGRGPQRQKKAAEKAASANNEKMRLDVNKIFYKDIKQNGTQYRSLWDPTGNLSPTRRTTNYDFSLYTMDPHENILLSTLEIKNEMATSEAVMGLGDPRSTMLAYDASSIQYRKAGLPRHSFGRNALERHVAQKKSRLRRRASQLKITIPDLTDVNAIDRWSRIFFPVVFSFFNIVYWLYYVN
T5 sequence (P18507 whole entry): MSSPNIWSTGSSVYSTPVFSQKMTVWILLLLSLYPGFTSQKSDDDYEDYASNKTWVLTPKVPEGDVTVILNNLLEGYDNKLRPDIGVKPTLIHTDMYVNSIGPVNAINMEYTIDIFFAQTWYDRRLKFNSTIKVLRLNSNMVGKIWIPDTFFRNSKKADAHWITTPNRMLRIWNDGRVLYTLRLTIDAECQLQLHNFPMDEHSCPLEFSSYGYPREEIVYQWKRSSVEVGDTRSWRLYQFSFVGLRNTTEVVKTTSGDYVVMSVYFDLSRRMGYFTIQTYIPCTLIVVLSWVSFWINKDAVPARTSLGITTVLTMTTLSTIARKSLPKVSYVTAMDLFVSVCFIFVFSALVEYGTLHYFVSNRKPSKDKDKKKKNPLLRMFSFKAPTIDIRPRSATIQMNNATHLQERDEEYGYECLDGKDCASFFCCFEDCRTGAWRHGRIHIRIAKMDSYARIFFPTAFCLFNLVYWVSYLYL
T5 sequence (P47869 whole entry): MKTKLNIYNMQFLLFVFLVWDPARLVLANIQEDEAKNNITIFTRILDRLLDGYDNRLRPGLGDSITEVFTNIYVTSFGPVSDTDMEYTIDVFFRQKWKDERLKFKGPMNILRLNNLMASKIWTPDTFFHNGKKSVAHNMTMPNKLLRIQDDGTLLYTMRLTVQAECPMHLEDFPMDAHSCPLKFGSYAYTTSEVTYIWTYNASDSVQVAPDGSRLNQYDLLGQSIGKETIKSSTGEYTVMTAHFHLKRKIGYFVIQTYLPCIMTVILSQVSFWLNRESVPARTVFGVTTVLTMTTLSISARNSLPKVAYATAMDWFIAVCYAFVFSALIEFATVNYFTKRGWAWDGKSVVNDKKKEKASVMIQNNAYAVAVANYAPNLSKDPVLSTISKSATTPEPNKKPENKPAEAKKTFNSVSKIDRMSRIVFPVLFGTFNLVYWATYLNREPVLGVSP
D(1A) dopamine receptor, sequence (P21728 whole entry): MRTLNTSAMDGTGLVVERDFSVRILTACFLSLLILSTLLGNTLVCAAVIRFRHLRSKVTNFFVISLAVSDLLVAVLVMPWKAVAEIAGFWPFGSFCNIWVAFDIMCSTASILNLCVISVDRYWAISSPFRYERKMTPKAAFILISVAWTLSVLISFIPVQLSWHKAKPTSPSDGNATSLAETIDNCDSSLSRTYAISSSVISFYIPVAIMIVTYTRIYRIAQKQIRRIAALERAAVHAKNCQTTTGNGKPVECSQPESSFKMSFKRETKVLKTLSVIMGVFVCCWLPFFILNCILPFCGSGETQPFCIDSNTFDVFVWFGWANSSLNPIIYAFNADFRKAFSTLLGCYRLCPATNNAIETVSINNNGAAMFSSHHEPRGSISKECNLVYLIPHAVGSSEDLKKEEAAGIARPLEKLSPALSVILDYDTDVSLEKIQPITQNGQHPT
Histamine H2 receptor, sequence (P25021 whole entry): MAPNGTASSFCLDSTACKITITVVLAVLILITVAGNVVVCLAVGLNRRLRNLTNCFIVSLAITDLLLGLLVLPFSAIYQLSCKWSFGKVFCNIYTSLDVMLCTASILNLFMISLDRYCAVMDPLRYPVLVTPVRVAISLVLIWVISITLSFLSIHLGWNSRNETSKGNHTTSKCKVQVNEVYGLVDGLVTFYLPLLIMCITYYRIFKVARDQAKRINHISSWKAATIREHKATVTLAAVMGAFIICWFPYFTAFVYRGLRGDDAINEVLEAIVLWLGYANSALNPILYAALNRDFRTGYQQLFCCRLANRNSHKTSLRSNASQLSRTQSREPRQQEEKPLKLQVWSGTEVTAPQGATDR

Row | Molecule | AC50 [1] [µM] | AC50 [2] [µM] | AC50 [3] [µM] | AC50 [4] [µM] | AC50 [5] [µM] | AC50 [6] [µM] | AC50 [7] [µM] | AC50 [8] [µM]
1 | O=C1CN=C(c2ccccc2Cl)c2cc([N+](=O)[O-])ccc2N1 [CLONAZEPAM] | > 30 | > 10 | > 10 | > 30 | > 10 | > 30 | – | –
2 | COc1ccc(-n2nc(C(N)=O)c3c2C(=O)N(c2ccc(N4CCCCC4=O)cc2)CC3)cc1 [APIXABAN] | – | – | – | – | – | – | > 30 | > 30
3 | COc1ccc2c3c1O[C@H]1C(=O)CC[C@H]4[C@@H](C2)N(C)CC[C@]314 [HYDROCODONE] | > 30 | > 10 | > 10 | > 30 | > 10 | > 30 | – | –
4 | CN1C(=O)CN=C(c2ccccc2F)c2cc([N+](=O)[O-])ccc21 [FLUNITRAZEPAM] | > 30 | > 10 | > 10 | > 30 | > 10 | > 10 | – | –
5 | CC1NCCOC1c1ccccc1 (configuration not stated) [PHENMETRAZINE] | > 30 | > 10 | – | > 30 | > 10 | > 30 | – | –
6 | CCN1C(=O)NC(c2ccccc2)C1=O (configuration not stated) [ETHOTOIN] | – | – | – | – | – | – | > 30 | > 30
7 | COc1ccc(C(Cl)=C(c2ccc(OC)cc2)c2ccc(OC)cc2)cc1 [CHLOROTRIANISENE] | – | – | – | – | – | – | > 30 | > 30
8 | TEPRENONE | – | – | – | – | – | > 30 | – | –
9 | CC(=O)OCC1=C(C(=O)O)N2C(=O)[C@@H](NC(=O)Cc3cccs3)[C@H]2SC1 [CEPHALOTHIN] | – | – | – | – | – | – | > 30 | > 30
10 | CCC(=O)O[C@H](CC(=O)O)C[N+](C)(C)C [LEVOCARNITINE PROPIONATE] | – | – | – | – | – | – | > 30 | > 30
11 | O=C(O)c1nn(Cc2ccc(Cl)cc2Cl)c2ccccc12 [LONIDAMINE] | – | – | – | – | – | – | – | > 30
12 | CC(C)(N)Cc1ccccc1 [PHENTERMINE] | > 30 | > 10 | – | > 30 | > 10 | > 30 | – | –
13 | CN1C2CCCC1CC(NC(=O)c1nn(C)c3ccccc13)C2 (configuration not stated) [GRANISETRON] | > 30 | > 10 | > 10 | > 30 | > 10 | > 30 | – | –
14 | CCN(CC)CCCN(c1ccccc1)C1Cc2ccccc2C1 [APRINDINE] | – | – | – | – | – | – | > 30 | > 30
15 | OCCN(CCO)c1nc(N2CCCCC2)c2nc(N(CCO)CCO)nc(N3CCCCC3)c2n1 [DIPYRIDAMOLE] | – | – | – | – | – | > 30 | – | –
16 | N=C(N)NC(=O)Cc1c(Cl)cccc1Cl [GUANFACINE] | – | – | – | – | – | > 30 | > 30 | –
17 | CCCCCCOC(=O)NC(=N)c1ccc(NCc2nc3cc(C(=O)N(CCC(=O)OCC)c4ccccn4)ccc3n2C)cc1 [DABIGATRAN ETEXILATE] | – | – | – | – | – | – | > 30 | > 30
18 | CC1=C(C(=O)O)N2C(=O)[C@@H](NC(=O)[C@H](N)C3=CCC=CC3)[C@H]2SC1 [CEPHRADINE] | – | – | – | – | – | – | > 30 | > 30

Row | Molecule | AC50 [1] [µM] | AC50 [2] [µM] | AC50 [3] [µM] | AC50 [4] [µM] | AC50 [5] [µM] | AC50 [6] [µM] | AC50 [7] [µM] | AC50 [8] [µM]
19 | CCOC(=O)C1=C(C)NC(C)=C(C(=O)OC)C1c1cccc(Cl)c1Cl (configuration not stated) [FELODIPINE] | > 30 | > 10 | > 10 | > 30 | > 10 | 2.6 | – | –
20 | Nc1cc(N2CCCCC2)nc(N)[n+]1[O-] [MINOXIDIL] | – | – | – | – | – | > 30 | – | –
21 | CN1CCC(=C2c3ccccc3CC(=O)c3sccc32)CC1 [KETOTIFEN] | – | 0.432 | – | – | – | – | – | –
22 | COC(=O)c1ccc2c(c1)NC(=O)/C2=C(\Nc1ccc(N(C)C(=O)CN2CCN(C)CC2)cc1)c1ccccc1 [NINTEDANIB] | – | – | – | – | – | – | > 30 | > 30
23 | O=C(O[C@H]1C[N+]2(CCCOc3ccccc3)CCC1CC2)C(O)(c1cccs1)c1cccs1 [ACLIDINIUM BROMIDE] | > 30 | – | > 10 | > 30 | > 10 | > 30 | – | –
24 | NS(=O)(=O)c1ccc(N2CCCCS2(=O)=O)cc1 | – | – | – | – | – | – | > 30 | > 30
25 | Cc1ccc(-c2ncc(Cl)cc2-c2ccc(S(C)(=O)=O)cc2)cn1 [ETORICOXIB] | > 30 | > 10 | > 10 | > 30 | > 10 | > 30 | – | –
26 | Cc1nnc2n1-c1ccc(Cl)cc1C(c1ccccc1)=NC2 [ALPRAZOLAM] | > 30 | > 10 | > 10 | > 30 | > 10 | > 30 | – | –
27 | CS(=O)(=O)NC(=O)CCC/C=C\C[C@H]1C(=O)C[C@@H](O)[C@@H]1/C=C/[C@@H](O)COc1ccccc1 [SULPROSTONE] | – | – | – | – | – | – | > 30 | > 30
28 | CC(NC(C)(C)C)C(=O)c1cccc(Cl)c1 (configuration not stated) [BUPROPION] | > 30 | > 10 | > 10 | > 30 | > 10 | > 30 | – | –
29 | CCCCCCCC(=O)CC[C@@H]1[C@@H](C/C=C\CCCC(=O)O)[C@@H](O)C[C@H]1O [UNOPROSTONE] | – | – | – | – | – | – | > 30 | > 30
30 | CCN(CC)CC(=O)Nc1c(C)cccc1C [LIDOCAINE] | > 30 | – | – | > 30 | – | > 30 | – | –
31 | CC1=C(CC(=O)O)c2cc(F)ccc2/C1=C\c1ccc([S+](C)[O-])cc1 (configuration not stated) | > 30 | > 10 | > 10 | > 30 | > 10 | > 30 | – | –
32 | Cc1cnc(Nc2ccc(OCCN3CCCC3)cc2)nc1Nc1cccc(S(=O)(=O)NC(C)(C)C)c1 [FEDRATINIB] | – | – | – | – | – | > 30 | – | –
33 | CCN(CC)C(C)C(=O)c1ccccc1 (configuration not stated) [DIETHYLPROPION] | > 30 | > 10 | > 10 | > 30 | > 10 | 0.22 | – | –
34 | Oc1cc(O)c2c(c1)O[C@H](c1ccc(O)c(O)c1)[C@@H](O)C2 [CIANIDANOL] | > 30 | > 10 | > 10 | > 30 | > 10 | > 30 | – | –
35 | CN(C)CCOC(=O)C(c1ccccc1)C1(O)CCCC1 (configuration not stated) [CYCLOPENTOLATE] | – | 0.624 | – | – | – | – | – | –
